From patent US10364222B2, “Cyclic amine derivative and medical use thereof” (Toray Industries, Inc., priority 2016, dated 2019) come the findings set out here.

Experiment [1] relates to IL-17 production in mouse splenocytes. Briefly: Suppressive effect on IL-17 production by IL-23 stimulation in mouse splenocytes. The experiment is classed as cell-based. To be noted: Splenocyte, 72 h, at 5 μmol/L of the test compound, 10 ng/mL human IL-23, 3 days, read-out: IL-17 production inhibition rate (%). In a few lines: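 Splenocytes from male C57BL/6J mice (3×10^5/well, with 100 U/mL human IL-2) stimulated with 10 ng/mL human IL-23 plus compound (0.1% DMSO) for 3 days at 37 °C. Supernatant IL-17 measured by ELISA; inhibition calculated against unstimulated and IL-23-only wells.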

Experiment [2] concerns mouse experimental autoimmune encephalomyelitis model. Briefly: Mouse experimental autoimmune encephalomyelitis model. To be noted: C57BL/6J mice, vs vehicle. The experiment is classed as in vivo. On the procedure: Using increase in the neurological symptom score as an index of exacerbation of symptoms, the effect of the cyclic amine derivative (I) or a pharmacologically acceptable salt thereof in a mouse experimental autoimmune encephalomyelitis model was evaluated. The mouse experimental autoimmune encephalomyelitis model was prepared by a partially modified method by Hindinger et al. (Journal of Neuroscience Research, 2006, Vol. 84, p. 1225-1234).
A total of 0.1 mL (0.05 mL on each side) of an MOG35-55 administration solution prepared by mixing a PBS solution containing partial synthetic peptides of myelin oligodendrocyte glycoproteins (MOG35-55; CSBio, Inc.) prepared to a concentration of 4 mg/mL with Freund's complete adjuvant at equal amount was intradermally inoculated to both flank sides of C57BL/6J mice (male, 8 weeks old) (Charles River Laboratories Japan, Inc.). Furthermore, 200 μL of pertussis toxin (Sigma-Aldrich Japan) prepared to a concentration of 1 μg/mL was intraperitoneally administered to the mice on the day of inoculation and 2 days after inoculation of the MOG35-55 administration solution.
After inoculation of the MOG35-55 administration solution, the test compound was administered to the mice. As the test compound, the compound of Example 20, the compound of Example 29, and the compound of Example 57 were used. The compound of Example 20 was suspended in a 0.5 w/v % methylcellulose solution and orally administered once daily at a dose of 3 mg/kg every day from 2 days after inoculation of the MOG35-55 administration solution. […]
After inoculation of the MOG35-55 administration solution, the neurological symptom scores in the groups in which test compound was administered and the corresponding vehicle administration groups were scored (0: normal, 1: limp tail or hind limb weakness, 2: limp tail and hind limb weakness, 3: partial hind limb paralysis, 4: complete hind limb paralysis, 5: moribund state). […]

By inhibition is commonly meant the drop in the measured response relative to a control, in per cent. For the compound `CC(=O)N1CCCC[C@@H]1C(=O)Nc1ccc(-c2ccccc2OC(F)(F)F)c(Cl)c1` [Example 20, (R)-1-acetyl-N-(2-chloro-2′-(trifluoromethoxy)-[1,1′-biphenyl]-4-yl)piperidine-2-carboxamide], the inhibition at 5 µM in experiment [1] is 99.7%. Besides, the “increase in the neurological symptom score” value in experiment [2] (3 mg/kg orally once daily from 2 days after MOG35-55 inoculation, score on the 13th day, Wilcoxon test P<0.05 (FIG. 1)) is on record as “statistically significantly suppressed”.

As to `CN(CC(=O)N1CCCC[C@@H]1C(=O)Nc1ccc(-c2ccccc2OC(F)(F)F)c(Cl)c1)S(C)(=O)=O` [Example 29, (R)-N-(2-chloro-2′-(trifluoromethoxy)-[1,1′-biphenyl]-4-yl)-1-(2-(N-methylmethylsulfonamide)acetyl)piperidine-2-carboxamide], the inhibition at 5 µM in experiment [1] was determined as 100%. Besides, the “increase in the neurological symptom score” value in experiment [2] (1 mg/kg orally once daily from 13 days after MOG35-55 inoculation, score on the 23rd day, Wilcoxon test P<0.05 (FIG. 2)) is listed as “statistically significantly suppressed”.

As for `O=C(Nc1ccc(-c2ccccc2OC(F)(F)F)c(Cl)c1)[C@H]1CCCCN1C(=O)Cn1cnnn1` [Example 57, (R)-1-(2-(1H-tetrazol-1-yl)acetyl)-N-(2-chloro-2′-(trifluoromethoxy)-[1,1′-biphenyl]-4-yl)piperidine-2-carboxamide], in experiment [1], the inhibition at 5 µM was 101%. Moreover, the “increase in the neurological symptom score” value in experiment [2] (1 mg/kg orally once daily from 13 days after MOG35-55 inoculation, score on the 30th day, Wilcoxon test P<0.05 (FIG. 3)) was “statistically significantly suppressed”.
